Experimental data published in US8178506B2, “Oligomeric compounds and compositions for use in modulation of small non-coding RNAs” (Regulus Therapeutics Inc., priority 2003, dated 2012).
In the oligonucleotide strings, read from the 5' end, every base follows the letter of its sugar. An asterisk marks phosphorothioate; unmarked linkages are phosphodiester. Other units and linkages are bracketed, terminal groups are in braces. A string of capitals states the bases alone. e = 2'-O-(2-methoxyethyl) (MOE); [5mC] = 5-methylcytosine; d = 2'-deoxy (DNA)

system: mir-30a pri-miRNA; experiment: mir-30a luciferase reporter (pGL3C-M30-4X) assay in 293T cells; assay type: cell-based, human; details: 150 nM oligomeric compound, then mir-30a pri-miRNA mimic 200 nM, pGL3C-M30-4X normalized to pRL-CMV
Description: In one embodiment of the invention, oligomeric compounds targeting the hairpin structure of mir-30a pri-miRNA were designed and tested for their effects on miRNA signaling in 293T cells (American Type Culture Collection (Manassas, Va.)).
A synthetic DNA fragment comprised of four tandem repeats of the target site for mir-30a was cloned into the vector pGL3-C (purchased from Promega Corp., Madison Wis.) at the unique XbaI site (pGL3C-M30-4X). This places the target site in the 3′UTR of the luciferase reporter vector. An oligomeric compound mimicking the mir-30a pri-miRNA ([…] […], herein incorporated as SEQ ID NO: 1749) was in vitro transcribed using T7 RNA polymerase and a DNA template produced by PCR (the T7 promoter is shown in bold).
On the day prior to the experiment 24-well plates were seeded with 293T cells at 50% confluency. The following morning cells were treated with oligomeric compounds targeted to the mir-30a pri-miRNA mimic. All of the compounds are 20 nucleobases in length having either a phosphorothioate backbone throughout (PS) or a phosphodiester backbone throughout (PO). […] All cytidine residues are 5-methylcytidines. The remaining compounds in the table have 2′-methoxyethoxy (MOE) nucleotides throughout with either a phosphorothioate (PS) or phosphodiester (PO) internucleoside linkages.
Cells were washed once with PBS then oligomeric compounds were added to triplicate wells at 150 nM in OPTI-MEM™ media and 4.5 μl/ml LIPOFECTIN™ reagent (Invitrogen Corporation, Carlsbad, Calif.). After 3 hours, the media was removed, and the cells were treated with the mir-30a pri-miRNA mimic at 200 nM in OPTI-MEM™ with 6 μl/ml LIPOFECTIN™ reagent. After 3 hours the media was removed from the cells. The reporter plasmid, pGL3C-M30-4X, was then transfected using SuperFect reagent. 20 μg of pGL3C-M30-4X and 2 μg of pRL-CMV, a plasmid expressing Renilla luciferase, were suspended in 600 μL of serum-free DMEM to which 120 μl of Superfect was added. After a 5 minute incubation, 6 mls of DMEM+10% FCS was added. 125 μL of the plasmid/SuperFect suspension was added to each well. After a 2 hour incubation cells were washed and fresh growth media added. Cells were incubated overnight.
The following morning the media was removed and the cells were lysed in 120 μL passive lysis buffer (PLB; Promega). 40 μL of the lysate was then assayed for Photinus (PL) and Renilla (RL) luciferases using a Dual Luciferase Assay kit (Promega) according to the manufacturer's protocol. The results below are given as percent pGL3C-M30-4× expression (PL) normalized to pRL-CMV expression (RL). The 20-nucleobase oligonucleotide random-mer ISIS Number 29848 was used as a negative control.

| Substance | percent control luciferase expression [percent control] |
| --- | --- |
| 328088 (antisense eA*eA*eG*e[5mC]*e[5mC]*d[5mC]*dA*dT*d[5mC]*dT*dG*dT*dG*dG*d[5mC]*eT*eT*e[5mC]*eA*e[5mC]) [compound 328088] | 107 |
| 328081 (antisense eT*eG*eA*eA*eA*dG*d[5mC]*d[5mC]*d[5mC]*dA*dT*d[5mC]*dT*dG*dT*eG*eG*e[5mC]*eT*eT) [compound 328081] | 80 |
| 328075 (antisense GCTTCACAGCTTCCAGTCGA; all 2'-MOE, all phosphorothioate, methylation of C not given here) [compound 328075] | 55 |
| 328086 (antisense e[5mC]*eA*eT*e[5mC]*eT*dG*dT*dG*dG*d[5mC]*dT*dT*d[5mC]*dA*d[5mC]*eA*eG*e[5mC]*eT*eT) [compound 328086] | 95 |
| 328087 (antisense AAGCCCATCTGTGGCTTCAC; all 2'-MOE, all phosphorothioate, methylation of C not given here; pseudo half-knot design targeting pri-miRNA hairpin) [compound 328087] | 83 |
| 328080 (antisense TGAAAGCCCATCTGTGGCTT; all 2'-MOE, all phosphorothioate, methylation of C not given here) [compound 328080] | 72 |
| 328077 (antisense CCCATCTGTGGCTTCACAGC; all 2'-MOE, all phosphorothioate, methylation of C not given here) [compound 328077] | 70 |
| 328076 (antisense eG*e[5mC]*eT*eT*e[5mC]*dA*d[5mC]*dA*dG*d[5mC]*dT*dT*d[5mC]*d[5mC]*dA*eG*eT*e[5mC]*eG*eA) [compound 328076] | 57 |
| 328085 (antisense CATCTGTGGCTTCACAGCTT; all 2'-MOE, all phosphorothioate, methylation of C not given here; designed as pseudo half-knot compound) [compound 328085] | 72 |
| 328078 (antisense e[5mC]*e[5mC]*e[5mC]*eA*eT*d[5mC]*dT*dG*dT*dG*dG*d[5mC]*dT*dT*d[5mC]*eA*e[5mC]*eA*eG*e[5mC]) [compound 328078] | 63 |

same assay, conditions: 150 nM, then mir-30a pri-miRNA mimic

| Substance | reversing the mir-30a miRNA-mediated silencing of luciferase reporter |
| --- | --- |
| ISIS 328086: 5-10-5 2′-MOE gapmer, pseudo half-knot compound targeting the mir-30a pri-miRNA (antisense e[5mC]*eA*eT*e[5mC]*eT*dG*dT*dG*dG*d[5mC]*dT*dT*d[5mC]*dA*d[5mC]*eA*eG*e[5mC]*eT*eT; pseudo half-knot compound) | restoring luciferase reporter expression to near control levels |
| ISIS 328088: 5-10-5 2′-MOE gapmer, pseudo half-knot compound targeting the mir-30a pri-miRNA (antisense eA*eA*eG*e[5mC]*e[5mC]*d[5mC]*dA*dT*d[5mC]*dT*dG*dT*dG*dG*d[5mC]*eT*eT*e[5mC]*eA*e[5mC]; pseudo half-knot compound) | restoring luciferase reporter expression to near control levels |
| ISIS 328087: 2′-MOE throughout; pseudo half-knot compound targeting the mir-30a pri-miRNA (antisense AAGCCCATCTGTGGCTTCAC; all 2'-MOE, all phosphorothioate, methylation of C not given here; pseudo half-knot design targeting pri-miRNA hairpin) | restoring luciferase reporter expression to near control levels |
